Laboratory results as given in patent publication US5356886A, “Antiviral phosphono-alken derivatives of purines” (Beecham Group p.l.c., priority 1990, dated 1994).
In brackets after ≈: the same amount, converted by molar mass.

What was measured:
Format in all cases: cell-based
HIV [1] = experiment: HIV Suppression test, viral RNA (nucleic acid hybridisation) in peripheral human lymphocytes; conditions: Human immunodeficiency virus 1, Lymphocyte, 96 h; Concn. 0.1 μM; read-out: % Inhibition on Day 4 after infection, Viral RNA
Description: (§1) Peripheral human lymphocytes were prepared, cultivated, and harvested as above. Following the determination of the lymphocyte surface markers, unstimulated and mitogen stimulated cells were combined in a ratio of 1:2.
(§2) Under safety conditions these cells are infected with a standard preparation of HIV. The cells are sedimented by centrifugation. The supernatant was discarded and cells were resuspended in the HIV inoculum.
(§3) This inoculum is a liquid suspension of HIV-1 strain virus, pretested and adjusted to a titer that results in a synthesis of viral core protein p24 of >100 ng/ml at day four following infection of human lymphocytes according to the protocol.
(§4) 3×10^8 lymphocytes were resuspended in 1 ml HIV inoculum and incubated at 37° C. for 60 minutes. Subsequently, the cells were washed two times with 50 ml of culture medium and resuspended in culture medium containing 10 units/ml of human recombinant interleukin-2 to yield a cell concentration of 2×10^6 cells/ml. 100 μof this cell suspension was added to each well of the microtiter plates containing the diluted solutions of the compounds. The microtiter plates were cultivated in an incubator with a humidified atmosphere and 5% CO2 at 37° C.
(§5) Accordingly, a fraction of lymphocytes was mock-infected with the same virus preparation that was heat inactivated (30 minutes at 56° C.) prior to infection.
(§6) On each of the days 2,3 and 4 post infection one of the microtiter plates which had been established in triplicate was prepared for determination of viral replication. Viral RNA is determined within the cells whereas the viral core protein p24 was detected in the supernatant of the lymphocyte culture.
(§7) Accordingly, 150 μl of supernatant were removed from each well and transferred to the well of a microtiter plate containing 50 μl/well of SDS (sodium dodecylsulfate, 0.08%). These plates were stored frozen. 50 μl of stop solution (1% SDS, 20 mM sodium acetate, pH 5.0, and 200 μg/ml heparin) were added to the cells remaining in each well. The plates were stored frozen.
(§8) The concentration of p24 synthesized by the HIV infected cells was determined by means of a sandwich ELISA, while the concentration of viral RNA was quantitated by nucleic acid hybridisation, using a ^32 P-labelled DNA probe for the gag/pol region of the viral genome. Absolute levels of viral antigen and RNA in drug treated samples were compared with untreated, virus-infected controls and the percentage inhibition calculated.

FIV = experiment: Test for Feline Immunodeficiency Virus (FIV Glasgow 8) in Crandell Feline Kidney cells; conditions: read-out: MIC (minimum concentration of drug inhibiting syncitial production)
Description: Drug stocks were diluted to the appropriate concentration, in medium (e.g. 10 mg/ml to 200 μg/ml). 150 μl of each drug was dispersed in triplicate, across the top row of a microtitre plate (150 μl of media for virus and cell control, vc and cc). 100 μl of medium was dispersed into all other wells. The wells were serially diluted moving down the plate, removing 50 μl from each well and transferring to the next row. 50 μl was discarded from the bottom wells.
Trypsinisation was carried out from a confluent cell monolayer of Crandell Feline Kidney cells, in 10% trypsin, followed by resuspension in media at 1×10^6 per ml, ensuring that a single cell suspension is achieved. (Media: 90% 1×RPMI, 25 mM hepes buffer; 10% Foetal calf serum; 2% Glutamine; 2% penecillin/streptomycin.)
FIV Glasgow 8 virus was diluted to 4× the required virus challenge in medium (40 TCID50 /ml). The virus infected medium was mixed with an equal volume of cell suspension, 100 μl of which was aliquoted into each well of the drug plate, except cell control. 100 μl of cell suspension at 5×10^4 per ml was added to the latter. This gives a final cell concentration of 2.5×10^4 per ml, and drug range 100-0.03 μg/ml. The plates were incubated at 37° C., 5% CO2 in an air humidified incabator for 11-14 days. The cells were fixed by immersing the plates in formoli saline (10% formaldehyde; 10% 1.5M NaCl; 80% water) for 1 hour minimum. The cells were stained with 10% crystal violet for 15 minutes.
The assay was scored by looking for presence of syncitia and, virus induced cytopathic effect in the cell monolayers, under a microscope. Results are given as the minimum concentration of drug inhibiting syncitial production, minimum inhibitory concentration, MIC.

VZV = experiment: Plaque Reduction Test for Varicella-Zoster Virus (Ellen strain) in MRC-5 cells; conditions: Human alphaherpesvirus 3, MRC5
Description: (§9) MRC-5 cells were grown to confluence in 24 well multi-dishes (well diameter=1.5 cm). The drained cell monolayers were each infected with approximately 50 infectious particles of varicella zoster virus (VZV; Ellen strain) in 100 μl of phosphate-buffered saline. The virus was adsorbed for 1 hour at room temperature. After adsorption, residual inoculum was removed from each well and replaced with 0.5 ml of Eagle's MEM containing 5% heat-inactivated foetal calf serum and 0.9% agarose (A37). Once the agarose had set, dilutions of the test compound, which had been prepared in Eagle's MEM (containing 5% heat-inactivated foetal calf serum), were added, each well receiving 0.5 ml of liquid overlay. The test compound was diluted to give the following series of concentrations: 200, 60, 20, 6 . . . 0.06 μg/ml; final concentrations in the assay ranged, therefore, between 100 μg/ml and 0.03 μg/ml. The infected cultures were incubated at 37° C. in a humidified atmosphere of 5% CO2 until plaques were clearly visible (5 or 6 days).
(§10) Cultures from 1 and 2 were fixed in formal saline, the agarose overlays were carefully washed off, and then the cell monolayers were stained with carbol fuchsin. A stereo microscope was used to count plaques. The IC50 (concentration of drug which inhibits the number of plaques formed by 50% relative to the number of plaques observed in virus control monolayers) of the test compound was calculated. In addition, the monolayers were examined for evidence of drug-induced cytotoxicity; the minimum concentration at which cytotoxicity occurs was recorded.

HIV [2] = experiment: HIV Suppression test, viral antigen (core protein p24, sandwich ELISA) in peripheral human lymphocytes; conditions: Human immunodeficiency virus 1, Lymphocyte, 96 h; Concn. 0.1 μM; read-out: % Inhibition on Day 4 after infection, Viral Antigen
Description: as §1, §2, §3, §4, §5, §6, §7, §8

HSV-2 = experiment: Plaque Reduction Test for Herpes Simplex Virus 2 (strain MS) in MRC-5 cells; conditions: Human alphaherpesvirus 2, MRC5
Description: as §9, with “herpes simplex” for “varicella zoster”, “1 (HSV-1; strain SC16) or herpes simplex virus 2 (HSV-2; strain MS)” for “(VZV; Ellen strain)”, “newborn” for “heat-inactivated foetal”, “(usually 1 day).” for “(5 or 6 days).”
as §10

Question: Which inhibition at 0.1 µM (HIV [1]) does the source give for Nc1nc2c(ncn2OCC/C=C/P(=O)(O)O)c(=O)[nH]1 [Example 1, (E)-9-(4-phosphonobut-3-enyloxy)guanine] here?
Answer: Its inhibition at 0.1 µM is 93%.

Question: And the MIC (FIV)?
Answer: Its MIC is 0.01 µg/mL (≈ 0.0332 µM).

Question: What about the IC50 (VZV) of the same compound?
Answer: Its IC50 is less than 3 µg/mL.

Question: What about the inhibition at 0.1 µM (HIV [2]) of the same compound?
Answer: The inhibition at 0.1 µM was 93%.

Question: And the IC50 (HSV-2)?
Answer: Its IC50 is less than 3 µg/mL.
